According to US9382549B2, “Glyphosate resistant plants and associated methods” (DOW AGROSCIENCES LLC, priority 2012, dated 2016):

What was measured:
T0 corn = test: T0 dgt-28 corn postemergence glyphosate tolerance; assay type: in vivo, Zea mays
Protocol: Zea mays dgt-28 transformation events (T0) were allowed to acclimate in the greenhouse and were grown until plants had transitioned from tissue culture to greenhouse growing conditions (i.e., 2-4 new, normal looking leaves had emerged from the whorl). Plants were grown at 27° C. under 16 hour light:8 hour dark conditions in the greenhouse. The plants were then treated with commercial formulations of DURANGO DMA™ (containing the herbicide glyphosate) with the addition of 2% w/v ammonium-sulfate. Herbicide applications were made with a track sprayer at a spray volume of 187 L/ha, 50-cm spray height. T0 plants were sprayed with a range of glyphosate from 280-4480 g ae/ha glyphosate, which is capable of significant injury to untransformed corn lines. A lethal dose is defined as the rate that causes >95% injury to the B104 inbred.
T0 events of dgt-28 linked with TraP4, TraP5, TraP8 and TraP23 were generated by Agrobacterium transformation and were allowed to acclimate under controlled growth chamber conditions until 2-4 new, normal looking leaves had emerged from the whorl. Plants were assigned individual identification numbers and sampled for copy number analyses of both dgt-28 and aad-1. Based on copy number analyses, plants were selected for protein expression analyses. […]

T1 Arabidopsis [1] = test: dgt-31, dgt-32, dgt-33 v1 T1 Arabidopsis response to glyphosate, visual % injury 2 WAT; assay type: in vivo, Arabidopsis thaliana
Excerpt: T1 plants were sampled and copy number analysis for the dgt-31, dgt-32, and dgt-33 v1 gene were completed. T1 plants were then assigned to various rates of glyphosate so that a range of copies were among each rate. For Arabidopsis, 26.25 g ae/ha glyphosate is an effective dose to distinguish sensitive plants from ones with meaningful levels of resistance. Elevated rates were applied to determine relative levels of resistance (105, 420, 1680, or 3360 g ae/ha).
All glyphosate herbicide applications were made by track sprayer in a 187 L/ha spray volume. Glyphosate used was of the commercial Durango dimethylamine salt formulation (480 g ae/L, Dow AgroSciences, LLC).
T1 plants selected above were subsequently transplanted to individual pots and sprayed with various rates of commercial glyphosate. Table 15 compares the response of dgt-31, dgt-32, and dgt-33 v1 and control genes to impart glyphosate resistance to Arabidopsis T1 transformants. Response is presented in terms of % visual injury 2 WAT. […] An arithmetic mean and standard deviation is presented for each treatment. The range in individual response is also indicated in the last column for each rate and transformation. Wild-type non-transformed Arabidopsis (cv. Columbia) served as a glyphosate sensitive control. […]

[2] = test system: T1 wheat, Bobwhite MPB26RH; test: Wheat detailed phenotypic screen (glyphosate 420-3360 g ai/ha); assay type: in vivo, Triticum aestivum; details: untransformed donor wheat
Protocol: Four replicates of 12 T1 seeds per selected event and eight replicates (12 seeds each) of the untransformed donor wheat line Bobwhite MPB26RH were sown in 85 mm pots and grown to the 2-leaf stage under well-watered conditions at 25° C. with supplementary lighting providing a 12 hour photoperiod. The pots were placed in a randomised design to allow environmental effects to be removed during data analysis. At the 2-leaf stage, plant length and number of leaves was recorded for each plant before spraying with glyphosate. The first, second, third and fourth replicate of T1 plants for each selected event and the untransformed donor wheat line were sprayed at a dose rate of 420, 840, 1680 and 3360 g ai/ha, respectively. The fifth, sixth, seventh and eighth replicate of untransformed donor wheat line (total 48 plants) were not sprayed. At 7, 14 and 21 days after spraying, the plants were scored for plant length, number of leaves and phenotypic response to glyphosate using the scoring scale in Table 37. Any morphological abnormalities were also recorded. For scoring, the scorer was “blinded” with regard to plant genotype and spray dose rate to prevent scoring bias. Plants with delayed germination and poor establishment (criteria: plant length <6 cm) at the pre-spray scoring were excluded from subsequent analyses.
This differentiation was maximal at 21 days and was observed across all glyphosate dose rates. Table 41. To assess the tolerance of the transgenic events to glyphosate at each spray dose rate, null T1 plants (i.e., plants not carrying the transgene) were excluded from subsequent analyses. T1 plants with a response score of less than three at 21 days after spraying were considered to have the null genotype. […]

[3] = test system: untransformed B104 maize line; test: Growth inhibition dosage response of maize cells on glyphosate; assay type: cell-based, Zea mays
T1 Arabidopsis [4] = test: T1 Arabidopsis response to postemergence glyphosate, visual % injury (dgt-28, dgt-32, dgt-33, dgt-3, dgt-7); assay type: in vivo, Arabidopsis thaliana
Excerpt: Transgenic T1 Arabidopsis plants containing the dgt-28 transgene were sprayed with differing rates of glyphosate. Elevated rates were applied in this study to determine the relative levels of resistance (105, 420, 1,680 or 3,360 g ae/ha). A typical 1× usage rate of glyphosate that will control non-transformed Arabidopsis is 420 g ae/ha. […] The T1 Arabidopsis plants that were used in this study were variable copy number for the dgt-28 transgene. The low copy dgt-28 T1 Arabidopsis plants were self-pollinated and used to produce T2 plants.
The Arabidopsis T1 transformants were first selected from the background of untransformed seed using a glufosinate selection scheme. Three flats or 30,000 seed were analyzed for each T1 construct. The T1 plants selected above were molecularly characterized and representative plants with variable copy number were subsequently transplanted to individual pots and sprayed with various rates of commercial glyphosate as previously described. The response of these plants is presented in terms of % visual injury 2 weeks after treatment (WAT). […] An arithmetic mean and standard deviation is presented for each construct used for Arabidopsis transformation. The range in individual response is also indicated in the last column for each rate and transformation. Wild-type, non-transformed Arabidopsis (c.v. Columbia) served as a glyphosate sensitive control.

[5] = test system: EPSP synthase (DGT enzymes); test: Steady-state kinetic parameters of DGT enzymes (Km for PEP, kcat/Km); assay type: biochemical
Protocol: The enzyme activities of wild-type (WT) and mutant DGTs were measured by inorganic phosphate (Pi) production in a modified procedure described by Lanzetta et al. (1979) Anal. Bioch. […] Assays were performed in 96-well plate format in a total of 50 μL on a Spectra-Max 190 plate reader (Molecular Devices, Sunnyvale, Calif.). Typical assays contained 50 mM HEPES pH 7.5, 150 mM KCl, 2 mM DTT, and 1 mM S3P. […] Assays were initiated by addition of the DGT enzyme at concentrations that varied between 0.01-1 μM. Reactions were terminated by the addition of 235 μL of a 3:1 mixture of malachite green: ammonium molybdate solution. After complete color development (˜1 minute), the absorbance change at 660 nm was recorded and the amount of Pi formed was calculated from a standard curve. Control reactions lacking enzyme were used to correct for background absorbance. […] The data were fitted to the Michaelis-Menten equation which allowed for the determination of Km and Vmax (Equation 3) while IC50 was determined from Equation 4, where y is the relative activity and s is the Hill coefficient. Data were analyzed using GRAFIT™ version 5 software (Erithacus Software Limited, Horley, U.K.).

[6] = 420 g ai/ha, Replicate 1, 10 plants pre-spray
[7] = 840 g ai/ha, Replicate 2, 10 plants pre-spray
[8] = 1680 g ai/ha, Replicate 3, 11 plants pre-spray
[9] = 3360 g ai/ha, Replicate 4, 10 plants pre-spray

With O=C(O)CNCP(=O)(O)O [glyphosate, N-(phosphonomethyl) glycine] the “glyphosate rate controlling non-transformed plants” value (T0 corn) was ≥ 280 g ae/ha, the “effective dose to distinguish sensitive plants from ones with meaningful levels of resistance” value (T1 Arabidopsis [1]; Arabidopsis) was 26.25 g ae/ha and the “No. surviving plants at 14 days after spraying” value (“No. surviving plants at 14 days” below) [2, 6] was 0. The “No. surviving plants at 21 days after spraying” value (“No. surviving plants at 21 days” for short) [2, 6] was 0, the “No. surviving plants at 14 days” value [2, 7] was 3 and the “No. surviving plants at 21 days” value [2, 7] was 0. The “No. surviving plants at 14 days” value [2, 8] was 0, the “No. surviving plants at 21 days” value [2, 8] was 0 and the “No. surviving plants at 14 days” value [2, 9] was 1. For the same molecule, the “No. surviving plants at 21 days” value [2, 9] was 0, the “glyphosate concentration sufficient to inhibit cell growth” value [3] was ≥ 0.25 mM and the “typical 1× usage rate of glyphosate that will control non-transformed Arabidopsis” value (T1 Arabidopsis [4]) was 420 g ae/ha.

B1: DGT-28 v1: native EPSP synthase of Streptomyces sviceus (SEQ ID NO:1), N-terminal 6×His tag, E. coli expressed (protein, listed as Streptomyces sviceus)
chain: MRGMPALSLPGSKSITARALFLAAAADGVTTLVRPLRSDDTEGFAEGLVRLGYRVGRTPDTWQVDGRPQGPAVAEADVYCRDGATTARFLPTLAAAGHGTYRFDASPQMRRRPLLPLSRALRDLGVDLRHEEAEGHHPLTVRAAGVEGGEVTLDAGQSSQYLTALLLLGPLTRQGLRIRVTDLVSAPYVEITLAMMRAFGVEVAREGDVFVVPPGGYRATTYAIEPDASTASYFFAAAALTPGAEVTVPGLGTGALQGDLGFVDVLRRMGAEVSVGADATTVRGTGELRGLTANMRDISDTMPTLAAIAPFASAPVRIEDVANTRVKECDRLEACAENLRRLGVRVATGPDWIEIHPGPATGAQVTSYGDHRIVMSFAVTGLRVPGISFDDPGCVRKTFPGFHEAFAELRRGIGS
modifications: N-terminal 6xHis tag
For B1, the “catalytic efficiency” value [5] was 132000 M⁻¹ s⁻¹ and the Km ([5]; read-out: KM^PEP) was 91.6 µM.

B2: DGT-31 (v1): Streptomyces EPSP synthase (GENBANK YP_004922608.1) (protein)
chain: MTVIDIPGSKSVTARALFLAAAADGTTTLLRPLHSDDTEGFTEGLTRLGYAVVREPDRWHIEGRPSGPAAADAEVHCRDGATTARFLPTLAAAAASGTYRFDASAQMRRRPLAPLTEALRTLGVDLRHDGAEGHHPLTIQASGVKGGGLTLDAGESSQYLTALLMLGPLTAEGLRIEVTELVSAPYVEITLAMMRGFGVEVVREGNTFTVPPGGYRATTYAIEPDASTASYFFAAAALTGREVTVPGLGTGALQGDLRFTEVLRRMDADVRTTSDSTTVRSDGRLAGLTVNMRDISDTMPTLAAIAPYASSPVRIEDVANTRVKECDRLEACAQNLRSMGITVRTGPDWIEIHPGTPRPTEIATHGDHRIVMSFAVAGLRTPGMSYDDPGCVRKTFPRFHEEFAAFVERSSAGE
modifications: DGT-31 protein
For B2, the “tolerance to glyphosate” value (T1 Arabidopsis [1]; T1 Arabidopsis, DGT-31 with TraP23, DGT-32, DGT-33 with TraP8, TraP14, TraP24) was “slight herbicide tolerance”.
